Test results: patent EP3046573B1, “AMYLIN ANALOGUES” (Zealand Pharma A/S, priority 2013, dated 2015)
Numbered stars: 1 amine (or outer) side, 2 acyl side, 3 side chain; on linkers, the order of the positions; unused ones are H or OH. Bridge positions count the residues as written; N and C are the ends. Square brackets hold non-standard residues; d marks the D form. Peptide text beside a SMILES is read from it. * marks the point of attachment. C20 diacid = O=C(O)CCCCCCCCCCCCCCCCCCC(=O)*; γGlu = O=C(O)[C@H](CCC(=O)[*:2])N[*:1]; NMeI = CC[C@H](C)[C@H](NC)C(=O)O; Sar = CNCC(=O)O

Legend:
[1] = target: T1, human amylin receptor 3 (hAMYR3) consisting of hCTR2 co-expressed with human Receptor Activity Modifying Protein 3 (hRAMP3) (Homo sapiens, UniProt O60896+P30988); test: hAMYR3 assay: induction of cAMP (AlphaScreen cAMP Assay kit) in COS7 cells expressing hAMYR3; format: cell-based; conditions: cAMP induction in COS7 cells expressing hAMYR3; average of a minimum of 3 determinations; read-out: hAMY R3 EC50
T1 construct: expressed in transfected cells
T1 sequence (P30988 25-474): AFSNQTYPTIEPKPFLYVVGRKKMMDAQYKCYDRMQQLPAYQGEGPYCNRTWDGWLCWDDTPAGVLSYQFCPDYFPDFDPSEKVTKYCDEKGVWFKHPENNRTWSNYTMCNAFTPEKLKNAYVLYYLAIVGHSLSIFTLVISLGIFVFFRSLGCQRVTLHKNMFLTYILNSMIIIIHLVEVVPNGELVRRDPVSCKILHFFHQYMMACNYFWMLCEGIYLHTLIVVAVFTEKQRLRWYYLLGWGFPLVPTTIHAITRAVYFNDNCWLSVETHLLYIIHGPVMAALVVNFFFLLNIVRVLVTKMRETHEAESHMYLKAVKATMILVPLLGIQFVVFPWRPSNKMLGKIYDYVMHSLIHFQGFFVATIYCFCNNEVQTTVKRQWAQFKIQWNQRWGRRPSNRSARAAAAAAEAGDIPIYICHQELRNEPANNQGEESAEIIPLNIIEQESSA
T1 sequence (O60896 24-148 partner): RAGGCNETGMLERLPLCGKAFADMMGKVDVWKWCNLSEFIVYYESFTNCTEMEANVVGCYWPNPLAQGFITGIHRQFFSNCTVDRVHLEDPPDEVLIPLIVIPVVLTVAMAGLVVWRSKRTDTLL
Summary of the method: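 Stable COS7 clone co-expressing hCTR2 and hRAMP3, stimulated 15 min at 37° C with increasing peptide in Tyrode buffer pH 7.4 with 100 µM IBMX and 0.1% casein. cAMP measured by AlphaScreen after lysis; EC50 and % efficacy versus pramlintide from 4PL fit.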

[2] = target: T2, human calcitonin receptor (hCTR2) (Homo sapiens, UniProt P30988); test: hCTR2 assay: induction of cAMP (AlphaScreen cAMP Assay kit) in COS7 cells expressing hCTR2; format: cell-based; conditions: cAMP induction in COS7 cells expressing hCTR2; average of a minimum of 3 determinations; read-out: hCTR2 EC50
T2 construct: expressed in transfected cells
T2 sequence (P30988 25-474): T1 sequence (P30988 25-474)
Summary of the method: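 Functional agonism is measured as cAMP accumulation in a COS7 line stably transfected with hCTR2, lacking endogenous RAMPs. Peptides act for 15 min at 37° C with IBMX present, and curves are fitted with a 4-parameter logistic model.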

[3] = Solubility assessment (turbidity absorbance at 325 nm); format: physicochemical; conditions: stock 2 mg/ml diluted 1:1, ambient temperature (typically 25°C), n=1; for Solubility, Acetate buffer pH 4: 100 mM acetate buffer pH 4.0; for Solubility, Acetate buffer pH 5: 100 mM acetate buffer pH 5.0; for Solubility, Histidine buffer pH 6: 100 mM histidine buffer pH 6.0; for Solubility, Histidine buffer pH 7: 100 mM histidine buffer pH 7.0; for Solubility, Phosphate buffer pH 6: 100 mM phosphate buffer pH 6.0; for Solubility, Phosphate buffer pH 7: 100 mM phosphate buffer pH 7.0; for Solubility, Phosphate buffer pH 7.5: 100 mM phosphate buffer pH7.5
Summary of the method: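 Stock 2 mg/ml peptide, H2O/HCl pH 2.5; 1:1 into 100 mM buffers: acetate pH 4.0/5.0, His pH 6.0/7.0, phosphate pH 6.0/7.0/7.5. A280 + A325, ~25°C, n=1. Soluble ≥ 1 mg/ml if A325 ≤ 0.02.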

SMILES | EC50 [1] [nM] | EC50 [2] [nM] | Solubility, Acetate buffer pH 4 [3] | Solubility, Acetate buffer pH 5 [3] | Solubility, Histidine buffer pH 6 [3] | Solubility, Histidine buffer pH 7 [3] | Solubility, Phosphate buffer pH 6 [3] | Solubility, Phosphate buffer pH 7 [3] | Solubility, Phosphate buffer pH 7.5 [3]
CC[C@H](C)[C@@H](C(=O)N[C@@H](CC(C)C)C(=O)N[C@@H](CO)C(=O)N[C@@H](CO)C(=O)N[C@H](C(=O)N[C@@H](CC(N)=O)C(=O)N[C@H](C(=O)NCC(=O)N[C@@H](CO)C(=O)N[C@@H](CC(N)=O)C(=O)N[C@H](C(=O)N[C@@H](Cc1ccc(O)cc1)C(=O)NC)[C@@H](C)O)C(C)C)[C@@H](C)O)N(C)C(=O)CN(C)C(=O)[C@H](Cc1ccccc1)NC(=O)[C@H](CC(N)=O)NC(=O)[C@H](CC(N)=O)NC(=O)[C@H](CO)NC(=O)[C@H](CO)NC(=O)[C@H](CCCNC(=N)N)NC(=O)[C@H](Cc1c[nH]cn1)NC(=O)[C@H](CC(C)C)NC(=O)[C@H](Cc1ccccc1)NC(=O)[C@H](CCC(=O)O)NC(=O)[C@H](C)NC(=O)[C@H](CC(C)C)NC(=O)[C@H](CCCNC(=N)N)NC(=O)[C@H](CCC(N)=O)NC(=O)[C@@H](NC(=O)[C@H](C)NC(=O)[C@@H]1CSSC[C@H](NC(=O)[C@H](CCCNC(=N)N)NC(=O)CC[C@H](NC(=O)CCCCCCCCCCCCCCCCCCC(=O)O)C(=O)O)C(=O)N[C@@H](CC(N)=O)C(=O)N[C@@H]([C@@H](C)O)C(=O)N[C@@H](C)C(=O)N[C@@H]([C@@H](C)O)C(=O)N1)[C@@H](C)O [Compound 155, [19CD]-isoGlu-RC()NTATC()ATQRLAEFLHRSSNNF-Gly(Me)-Ile(Me)-LSSTNVGSNTY-NHMe] ({C20 diacid-γGlu}-RCNTATCATQRLAEFLHRSSNNF[Sar][NMeI]LSSTNVGSNTY-NHMe; disulfide 2-7) | 5.3 | 0.67 | SS (SS indicates solubility ≥ 1mg/ml) | SS (SS indicates solubility ≥ 1mg/ml) | II (II indicates solubility ≤ 1 mg/ml) | II (II indicates solubility ≤ 1 mg/ml) | II (II indicates solubility ≤ 1 mg/ml) | II (II indicates solubility ≤ 1 mg/ml) | II (II indicates solubility ≤ 1 mg/ml)
CC[C@H](C)[C@@H](C(=O)N[C@@H](CC(C)C)C(=O)N[C@@H](CO)C(=O)N[C@@H](CO)C(=O)N[C@H](C(=O)N[C@@H](CC(=O)O)C(=O)N[C@H](C(=O)NCC(=O)N[C@@H](CO)C(=O)N[C@@H](CC(=O)O)C(=O)N[C@H](C(=O)N1CCC[C@H]1C(N)=O)[C@@H](C)O)C(C)C)[C@@H](C)O)N(C)C(=O)[C@H](C)NC(=O)CN(C)C(=O)[C@H](Cc1ccccc1)NC(=O)[C@H](CO)NC(=O)[C@H](CO)NC(=O)[C@H](CCCNC(=N)N)NC(=O)[C@H](Cc1c[nH]cn1)NC(=O)[C@H](CC(C)C)NC(=O)[C@H](Cc1ccccc1)NC(=O)[C@H](CCC(=O)O)NC(=O)[C@H](C)NC(=O)[C@H](CC(C)C)NC(=O)[C@H](CCCNC(=N)N)NC(=O)[C@H](CC(=O)O)NC(=O)[C@@H](NC(=O)[C@H](C)NC(=O)[C@@H]1CSSC[C@H](NC(=O)[C@H](Cc2c[nH]c3ccccc23)NC(=O)CC[C@H](NC(=O)CCCCCCCCCCCCCCCCCCC(=O)O)C(=O)O)C(=O)NCC(=O)N[C@@H]([C@@H](C)O)C(=O)N[C@@H](C)C(=O)N[C@@H]([C@@H](C)O)C(=O)N1)[C@@H](C)O [Compound 157, [19CD]-isoGlu-WC()GTATC()ATDRLAEFLHRSSF-Gly(Me)-A-Ile(Me)-LSSTDVGSDTP-NH2] ({C20 diacid-γGlu}-WCGTATCATDRLAEFLHRSSF[Sar]A[NMeI]LSSTDVGSDTP-NH2; disulfide 2-7) | 0.16 | 0.072 | II (II indicates solubility ≤ 1 mg/ml) | SS (SS indicates solubility ≥ 1mg/ml) | SS (SS indicates solubility ≥ 1mg/ml) | SS (SS indicates solubility ≥ 1mg/ml) | SS (SS indicates solubility ≥ 1mg/ml) | SS (SS indicates solubility ≥ 1mg/ml) | SS (SS indicates solubility ≥ 1mg/ml)
CC[C@H](C)[C@@H](C(=O)N[C@@H](CC(C)C)C(=O)N[C@@H](CO)C(=O)N[C@@H](CO)C(=O)N[C@H](C(=O)N[C@@H](CC(=O)O)C(=O)N[C@H](C(=O)NCC(=O)N[C@@H](CO)C(=O)N[C@@H](CC(=O)O)C(=O)N[C@H](C(=O)N1CCC[C@H]1C(N)=O)[C@@H](C)O)C(C)C)[C@@H](C)O)N(C)C(=O)[C@H](C)NC(=O)CN(C)C(=O)[C@H](Cc1ccccc1)NC(=O)[C@H](CO)NC(=O)[C@H](CO)NC(=O)[C@H](CCCNC(=N)N)NC(=O)[C@H](Cc1c[nH]cn1)NC(=O)[C@H](CC(C)C)NC(=O)[C@H](Cc1ccccc1)NC(=O)[C@H](CCC(=O)O)NC(=O)[C@H](C)NC(=O)[C@H](CC(C)C)NC(=O)[C@H](CCCNC(=N)N)NC(=O)[C@H](CC(=O)O)NC(=O)[C@@H](NC(=O)[C@H](C)NC(=O)[C@@H]1CSSC[C@H](NC(=O)[C@H](CCCNC(=N)N)NC(=O)CC[C@H](NC(=O)CCCCCCCCCCCCCCCCCCC(=O)O)C(=O)O)C(=O)NCC(=O)N[C@@H]([C@@H](C)O)C(=O)N[C@@H](C)C(=O)N[C@@H]([C@@H](C)O)C(=O)N1)[C@@H](C)O [Compound 158, [19CD]-isoGlu-RC()GTATC()ATDRLAEFLHRSSF-Gly(Me)-A-Ile(Me)-LSSTDVGSDTP-NH2] ({C20 diacid-γGlu}-RCGTATCATDRLAEFLHRSSF[Sar]A[NMeI]LSSTDVGSDTP-NH2; disulfide 2-7) | 0.11 | 0.048 | SS (SS indicates solubility ≥ 1mg/ml) | SS (SS indicates solubility ≥ 1mg/ml) | SS (SS indicates solubility ≥ 1mg/ml) | SS (SS indicates solubility ≥ 1mg/ml) | SS (SS indicates solubility ≥ 1mg/ml) | SS (SS indicates solubility ≥ 1mg/ml) | SS (SS indicates solubility ≥ 1mg/ml)
